Assay results taken from patent US20250002854A1, “METHODS OF GENERATING POPULATIONS OF TUMOUR-INFILTRATING T CELLS” (LYTIX BIOPHARMA AS, priority 2016, published 2025).
Entries after “also recorded” stand apart in the source; their conditions may differ. Square brackets hold non-standard residues; d marks the D form. Ends that are not written are not given here. Dip = N[C@H](C(=O)O)C(c1ccccc1)c1ccccc1

Assays:
murine B16 melanomas = test: Murine melanoma model, intratumoural injections of LTX-401; format: in vivo
B16F1 cells [1] = test: TEM electron microscopy of B16F1 cells; format: cell-based, murine; details: 108 μM
Protocol: B16F1 cells were seeded in 35 mm sterile tissue culture dishes at a density of 1×10^4 cells in a volume of 2 ml of culture media, and left to adhere and grow in a cell incubator at 37° C., >95% humidity and 5% CO2 conditions. When cultured cells reached an acceptable confluence (˜80-90%), they were incubated with the 4×IC50^4h value of LTX-401 (108 μM) for different time points (5, 15, 30 and 60 minutes) and subsequently fixed in a PHEM buffered (0.1 M) solution containing 0.05% malachite green oxalate (Sigma), 0.5% glutaraldehyde (GA, Electron Microscopy Sciences) and 4% formaldehyde (FA, Electron Microscopy Sciences). Malachite green is more frequently being used as an additive to primary fixation in order to reduce lipid extraction commonly associated with sample processing. Samples were immediately loaded and processed en bloc using the PELCO Biowave Pro Laboratory Microwave (Ted Pella, Inc.), a newly introduced method considered to be advantageous over conventional bench protocols, since it reduces sample preparation from days to hours. For all microwave steps, samples were microwaved at 23° C. with a 50° C. cut-out temperature. Both malachite green/GA/FA and osmium-reduced ferrocyanide (0.8% K3Fe (CN)6/1% OsO4) fixation steps were run in “power on/off” cycles of 2 minutes on, 2 minutes off (100 W), with vacuum.
Samples were rinsed four times with 0.1 M PHEM buffer between each step (two bench rinses and two final rinses for 40 seconds at 250 W) before being stained with 1% tannic acid (Electron Microscopy Sciences, PA, USA) and 1% aqueous uranyl acetate (Electron Microscopy Sciences, PA, USA) under “power on/off” cycles of 1 minute on, 1 minute off (150 W), with vacuum. Samples were rinsed as previously described between each staining procedure, in addition to being microwaved twice in water at 250 W (vacuum off). […]

B16F1 cells [2] = test: In vitro cytotoxicity, MTT assay (IC50 4h); format: cell-based, murine; details: B16F1, 4 h
Excerpt: JM1, a rat hepatocellular carcinoma, HEPG2 and BEL7402, both human hepatocellular carcinomas, were kindly provided by Dr. Pål-Dag Line, Director, Department of Transplantation Medicine, Oslo University Hospital. B16F1 (ATCC, CRL-6323), a murine skin malignant melanoma, MDA-MB-435S (HTB-129), a human malignant melanoma originating from a breast metastases, Malme-3M (HTB-64), a human malignant melanoma derived from a lung metastases, MRC-5 (ATCC, CCL-171), normal human lung fibroblasts, SK-N-AS (ATCC, CRL-2137), a human neuroblastoma cell line derived from a bone marrow metastases, HT-29 (ATCC, HTB-38), a human colorectal adenocarcinoma and HUV-EC-C (ATCC, CRL-1730), a human vascular endothelium cell line, were all purchased from the American Type Culture Collection (ATCC-LGC Standards, Rockville, MD, USA). HaCat, a human keratinocyte cell line, was kindly provided by Dr. Ingvild Pettersen, Department of Host Microbe Interactions, University of Tromsø. A375, a malignant melanoma cell line of human origin, was purchased from Public Health England (PHE Culture Conditions, Porton, Down, Salisbury, UK). JM1, A375, BEL7402, HEPG2 and B16F1 were all maintained in culture media consisting of DMEM (high glucose), while SK-N-AS, HT-29 and MDA-MB-435S were cultured in an RPMI-1640 medium containing 2 mM L-glutamine and sodium bicarbonate. […]

A375 cells = test: Fluorescence measurement of reactive oxygen species (DCFDA); format: cell-based, human; details: 15 minutes of incubation, different concentrations
Protocol: A DCFDA cellular reactive oxygen species detection assay kit was purchased from abcam®, and A375 cells seeded in a 96-well Costar black clear bottom plate with 20,000 cells per well incubated in 37° C. 16 hours prior to DCFDA assay. Cells were washed with a 100 μL/well of pre-warmed PBS one time, and incubated with 20 µM of DCFDA in a buffer solution supplied with the kit at 37° C. in a cell culture incubator for 45 min, and then washed again with a buffer solution of 100 μL/well. […] The fluorescence intensity was determined at an excitation wavelength of 485 nm and an emission wavelength of 530 nm on a FLUOstar Galaxy plate reader.

| Molecule | tumour regression / remission (murine B16 melanomas) | ultrastructural changes (B16F1 cells [1]; 5 min) | ultrastructural changes (B16F1 cells [1]; 60 minutes) | mode of cell killing (B16F1 cells [1]; TEM) | IC50 (B16F1 cells [2]) | ROS generation (A375 cells) |
| --- | --- | --- | --- | --- | --- | --- |
| Cl.Cl.NCCNC(=O)C(CN)(CCCc1ccccc1)CCCc1ccccc1 [LTX-401] | complete and long-lasting remission; also recorded: complete regression | lost their surface morphology | Large portions of cells were necrotic | kills by a lytic mode of action | 27 µM | – |
| K-K-W-W-K-K-W-Dip-K-NH2 (KKWWKKW[Dip]K-NH2) [LTX-315] | – | – | – | – | – | Significant amounts of ROS were generated |
